Here are results for 30 compounds from patent US8664379B2, “Fused heterocyclic compounds as ion channel modulators” (Gilead Sciences, Inc., priority 2008, dated 2014).

The assay addresses wild-type human cardiac sodium channel, hNav1.5 (late sodium current) (Homo sapiens, UniProt Q14524). Description: Late INa screening assay (PatchXpress whole cell patch clamp). It is filed as cell-based. As to conditions: HEK293 cells expressing hNav1.5, late INa generated with 10 μM Tefluthrin (some experiments 50 nM ATX II); for inhibition at 10 µM: HEK293, 10 μM test compound, read-out: Late INa % blk (10 μM test cmpd); for Late INa % blk (1 μM test cmpd): 1 μM test compound. On the procedure: The late sodium current (Late INa) and peak sodium current (Peak INa) assays were performed on an automated electrophysiology platform, PatchXpress 7000A (MDS Analytical Technologies, Sunnyvale, Calif.), which uses the whole cell patch clamp technique to measure currents through the cell membrane of up to 16 cells at a time. The assay used an HEK293 (human embryonic kidney) cell line heterologously expressing the wild-type human cardiac sodium channel, hNav1.5, purchased from Millipore (Billerica, Mass.). No beta subunits were coexpressed with the Na channel alpha subunit. Cells were maintained with standard tissue culture procedures and stable channel expression was maintained with 400 μg/ml Geneticin in the culture medium. Cells isolated for use on PatchXpress were incubated for 5 minutes in Versene 1× and then for 2 minutes in 0.0125% Trypsin-EDTA (both at 37° C.) to ensure that 80-90% of the cells are single and not part of a cell cluster. Experiments were carried out at 24-27° C.
For both the Late INa and Peak INa assays, series resistance compensation was set to 50% and whole-cell compensation was performed automatically. Currents were low-pass filtered at 10 kHz and digitized at 31.25 kHz. Currents through open sodium channels were automatically recorded and stored in the DataXpress2 database (MDS Analytical Technologies, Sunnyvale, Calif.). Analysis was performed using DataXpress2 analysis software and data are compiled in Excel.
Compound stocks were routinely made in glass vials to 10 mM in dimethyl sulfoxide (DMSO). In some cases, when compounds were not soluble in DMSO, they were made in 100% ethanol. Stocks were sonicated as necessary. The extracellular solution for screening Late INa was composed of: 140 mM NaCl, 4 mM KCl, 1.8 mM CaCl2, 0.75 mM MgCl2, and 5 mM HEPES with pH adjusted to 7.4 using NaOH. The extracellular solution for screening Peak INa was composed of: 20 mM NaCl, 120 mM N-methyl-D glucamine, 4 mM KCl, 1.8 mM CaCl2, 0.75 mM MgCl2, and 5 mM HEPES with pH adjusted to 7.4 using HCl. The intracellular solution used to perfuse the inside of the cells for both the Late INa and Peak INa assays contains: 120 mM CsF, 20 mM CsCl, 5 mM EGTA, 5 mM HEPES and pH adjusted to 7.4 with CsOH. Compounds were diluted in extracellular solution to 10 μM in glass vials and then transferred to glass well plates before robotic addition to the cells. The 0Na extracellular solution used at the end of each experiment for the Late INa and Peak INa assays to measure baseline current contained: 140 mM N-methyl-D-glucamine; 4 mM KCl; 1.8 mM CaCl2; 0.75 mM MgCl2; 5 mM HEPES and pH was adjusted to 7.4 with HCl.
For the Late INa assay, sodium channels were activated every 10 seconds (0.1 Hz) by depolarizing the cell membrane to −20 mV for 250 milliseconds (ms) from a holding potential of −120 mV. In response to a −20 mV voltage step, typical Nav1.5 sodium currents activated rapidly to a peak negative current and then inactivated nearly completely within 3-4 ms.
All compounds were tested to determine their activity in blocking the late sodium current. Late INa current is generated by adding 10 μM Tefluthrin (pyrethroid) to the extracellular solution while recording Na currents. For some experiments, 50 nM ATX II (sea anemone toxin), another late INa activator, was used to generate the late component. Both activators generate late components that are large enough that block of the late component by compounds can be measured easily. For the purposes of the screening, late INa is defined as the mean current between 225 ms and 250 ms after stepping to −20 mV to activate Na channels. After establishing the whole cell recording configuration, late INa activators were added to each well 4 times over a 16-17 minute period so that the late component of the Na current reached a stable value. Compounds were then added (typically at 10 μM), in the presence of late INa activator, with 3 additions over the course of 7 or 8 minutes. […]
For orientation: The patch-clamp technique gives a direct electrical read-out from membranes.

Chain of wild-type human cardiac sodium channel, hNav1.5 (late sodium current) (Q14524 whole entry): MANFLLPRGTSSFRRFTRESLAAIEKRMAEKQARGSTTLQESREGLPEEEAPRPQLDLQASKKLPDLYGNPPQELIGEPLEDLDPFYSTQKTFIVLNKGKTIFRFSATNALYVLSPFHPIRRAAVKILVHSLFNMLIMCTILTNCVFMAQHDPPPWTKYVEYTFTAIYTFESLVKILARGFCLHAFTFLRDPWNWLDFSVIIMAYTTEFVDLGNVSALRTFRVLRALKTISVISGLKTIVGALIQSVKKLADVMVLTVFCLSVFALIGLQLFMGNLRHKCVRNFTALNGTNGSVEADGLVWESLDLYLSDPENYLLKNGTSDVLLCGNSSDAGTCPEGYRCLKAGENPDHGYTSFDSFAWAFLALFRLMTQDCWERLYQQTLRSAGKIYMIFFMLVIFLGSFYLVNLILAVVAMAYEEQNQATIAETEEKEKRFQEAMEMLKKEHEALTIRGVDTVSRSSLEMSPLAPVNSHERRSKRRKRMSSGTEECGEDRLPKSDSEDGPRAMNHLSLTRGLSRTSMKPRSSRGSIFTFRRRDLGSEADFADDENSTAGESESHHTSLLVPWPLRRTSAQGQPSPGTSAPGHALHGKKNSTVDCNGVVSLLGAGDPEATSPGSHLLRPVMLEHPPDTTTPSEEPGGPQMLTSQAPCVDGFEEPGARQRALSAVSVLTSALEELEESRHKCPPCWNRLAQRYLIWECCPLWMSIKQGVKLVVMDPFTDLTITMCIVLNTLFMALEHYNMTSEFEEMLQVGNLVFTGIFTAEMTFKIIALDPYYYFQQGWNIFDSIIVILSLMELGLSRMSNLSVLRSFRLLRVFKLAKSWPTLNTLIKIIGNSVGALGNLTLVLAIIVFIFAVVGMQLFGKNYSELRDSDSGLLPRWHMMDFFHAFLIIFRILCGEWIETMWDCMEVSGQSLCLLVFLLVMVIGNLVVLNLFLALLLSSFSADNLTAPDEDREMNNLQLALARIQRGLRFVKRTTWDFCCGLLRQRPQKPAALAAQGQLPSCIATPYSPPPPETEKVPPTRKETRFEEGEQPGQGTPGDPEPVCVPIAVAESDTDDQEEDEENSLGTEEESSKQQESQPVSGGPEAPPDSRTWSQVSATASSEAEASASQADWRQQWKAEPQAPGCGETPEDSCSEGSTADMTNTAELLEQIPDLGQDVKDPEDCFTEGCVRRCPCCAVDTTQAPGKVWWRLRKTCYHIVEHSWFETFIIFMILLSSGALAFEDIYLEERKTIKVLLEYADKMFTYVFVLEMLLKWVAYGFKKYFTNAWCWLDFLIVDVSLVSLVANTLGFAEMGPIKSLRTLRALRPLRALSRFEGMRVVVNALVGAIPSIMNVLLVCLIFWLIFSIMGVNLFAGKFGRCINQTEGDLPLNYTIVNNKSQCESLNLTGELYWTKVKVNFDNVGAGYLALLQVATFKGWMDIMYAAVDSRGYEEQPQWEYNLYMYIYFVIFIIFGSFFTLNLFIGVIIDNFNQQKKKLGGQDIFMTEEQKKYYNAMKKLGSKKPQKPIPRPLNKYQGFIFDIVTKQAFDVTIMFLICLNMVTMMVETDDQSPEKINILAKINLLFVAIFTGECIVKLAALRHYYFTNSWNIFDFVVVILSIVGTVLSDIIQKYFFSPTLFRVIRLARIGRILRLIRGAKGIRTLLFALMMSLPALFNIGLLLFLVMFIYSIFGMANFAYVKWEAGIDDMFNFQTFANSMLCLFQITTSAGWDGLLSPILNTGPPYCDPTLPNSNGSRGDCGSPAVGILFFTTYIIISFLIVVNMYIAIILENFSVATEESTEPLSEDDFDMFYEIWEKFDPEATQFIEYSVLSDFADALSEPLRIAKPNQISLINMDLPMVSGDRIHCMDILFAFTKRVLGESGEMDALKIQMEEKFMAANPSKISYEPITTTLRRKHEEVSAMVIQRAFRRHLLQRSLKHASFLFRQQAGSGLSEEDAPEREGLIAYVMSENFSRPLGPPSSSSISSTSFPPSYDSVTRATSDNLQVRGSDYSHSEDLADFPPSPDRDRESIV

As to `NC(=O)c1ccc(-c2ccc3c(c2)CCC(=O)N3)cc1` [Compound 2, 4-(2-oxo-1,2,3,4-tetrahydroquinolin-6-yl)benzamide], the inhibition at 10 µM worked out at 16%.
For `O=C1CCc2cc(-c3ccc(F)cc3)ccc2N1` [Compound 3, 6-(4-fluorophenyl)-3,4-dihydroquinolin-2(1H)-one], the inhibition at 10 µM was 29%.
For the compound `N#Cc1ccc(-c2ccc3c(c2)CCC(=O)N3)cc1` [Compound 5, 4-(2-oxo-1,2,3,4-tetrahydroquinolin-6-yl)benzonitrile], the inhibition at 10 µM is 30%.
Turning to `NC(=O)c1cccc(-c2ccc3c(c2)CCC(=O)N3)c1` [Compound 6, 3-(2-oxo-1,2,3,4-tetrahydroquinolin-6-yl)benzamide], the inhibition at 10 µM turned out to be 23%.
The same measure, in the same setting: the value for `O=C1CCc2cc(-c3ccccc3F)ccc2N1` [Compound 7, 6-(2-fluorophenyl)-3,4-dihydroquinolin-2(1H)-one] was 52%.
Turning to `CC(=O)c1cccc(-c2ccc3c(c2)CCC(=O)N3)c1` [Compound 8, 6-(3-acetylphenyl)-3,4-dihydroquinolin-2(1H)-one], the inhibition at 10 µM turned out to be 22%.
`O=C1CCc2cc(-c3ccc(C(F)(F)F)cc3)ccc2N1` [Compound 9, 6-[4-(trifluoromethyl)phenyl]-3,4-dihydroquinolin-2(1H)-one]: the inhibition at 10 µM is 62%.
`O=C1CCc2cc(-c3ccc(Cl)c(C(F)(F)F)c3)ccc2N1` [Compound 10, 6-[4-chloro-3-(trifluoromethyl)phenyl]-3,4-dihydroquinolin-2(1H)-one]: the “Late INa % blk (1 μM test cmpd)” value is on record as 40% and the inhibition at 10 µM is 66%.
`O=C1CCc2cc(-c3ccc(F)cc3F)ccc2N1` [Compound 11, 6-(2,4-difluorophenyl)-3,4-dihydroquinolin-2(1H)-one]: the inhibition at 10 µM is 54%.
Take `N#Cc1cc(-c2ccc3c(c2)CCC(=O)N3)ccc1F` [Compound 12, 2-fluoro-5-(2-oxo-1,2,3,4-tetrahydroquinolin-6-yl)benzonitrile]: the inhibition at 10 µM turned out to be 27%.
Turning to `O=C1CCc2cc(-c3cccc(C(F)(F)F)c3)ccc2N1` [Compound 13, 6-[3-(trifluoromethyl)phenyl]-3,4-dihydroquinolin-2(1H)-one], the inhibition at 10 µM was 70%.
On the same count and under the same terms, the value for `O=C1CCc2cc(-c3ccc(F)cc3F)ccc2N1CCO` [Compound 16, 6-(2,4-difluorophenyl)-1-(2-hydroxyethyl)-3,4-dihydroquinolin-2(1H)-one] was 24%; that for `O=C1CCc2cc(-c3ccc(C(F)(F)F)c(F)c3)ccc2N1` [Compound 19, 6-(3-fluoro-4-(trifluoromethyl)phenyl)-3,4-dihydroquinolin-2(1H)-one] was 31%; that for `CCOC(=O)CN1C(=O)CCc2cc(-c3ccc(F)cc3F)ccc21` [Compound 22, ethyl [6-(2,4-difluorophenyl)-2-oxo-3,4-dihydroquinolin-1(2H)-yl]acetate] was 67%.
Take `CCOC(=O)CN1C(=O)CCc2cc(-c3ccc(F)c(F)c3)ccc21` [Compound 23, ethyl [6-(3,4-difluorophenyl)-2-oxo-3,4-dihydroquinolin-1(2H)-yl]acetate]: the inhibition at 10 µM came to 33%.
For the compound `CCOC(=O)CN1C(=O)CCc2cc(-c3cccc(OC(F)(F)F)c3)ccc21` [Compound 24, ethyl {2-oxo-6-[3-(trifluoromethoxy)phenyl]-3,4-dihydroquinolin-1(2H)-yl}acetate], the “Late INa % blk (1 μM test cmpd)” value is given as 44% and the inhibition at 10 µM came out at 74%.
Turning to `O=C1CCc2cc(-c3ccc(F)cc3F)ccc2N1CC(F)(F)F` [Compound 28, 6-(2,4-difluorophenyl)-1-(2,2,2-trifluoroethyl)-3,4-dihydroquinolin-2(1H)-one], the inhibition at 10 µM is 18%.
As for `CC(C)(C)OC(=O)CN1C(=O)CCc2cc(-c3ccc(F)cc3F)ccc21` [Compound 30, tert-butyl [6-(2,4-difluorophenyl)-2-oxo-3,4-dihydroquinolin-1(2H)-yl]acetate], the “Late INa % blk (1 μM test cmpd)” value came to 47.9% and the inhibition at 10 µM was 86%.
Turning to `NC(=O)CN1C(=O)CCc2cc(-c3ccc(OC(F)(F)F)cc3)ccc21` [Compound 31, 2-{2-oxo-6-[4-(trifluoromethoxy)phenyl]-3,4-dihydroquinolin-1(2H)-yl}acetamide], the inhibition at 10 µM is 26%.
Turning to `O=C(CN1C(=O)CCc2cc(-c3ccc(C(F)(F)F)cc3)ccc21)N1CCOCC1` [Compound 32, 1-[2-(morpholin-4-yl)-2-oxoethyl]-6-[4-(trifluoromethyl)phenyl]-3,4-dihydroquinolin-2(1H)-one], the inhibition at 10 µM worked out at 27%.
Consider `CC(C)(C)OC(=O)CN1C(=O)CCc2cc(-c3ccc(F)cc3)ccc21` [Compound 33, tert-butyl [6-(4-fluorophenyl)-2-oxo-3,4-dihydroquinolin-1(2H)-yl]acetate], for which the “Late INa % blk (1 μM test cmpd)” value is recorded as 38.1% and the inhibition at 10 µM was found to be 77%.
Consider `CC(C)(C)c1nc(CN2C(=O)CCc3cc(-c4ccc(F)cc4)ccc32)no1` [Compound 35, 1-[(5-tert-butyl-1,2,4-oxadiazol-3-yl)methyl]-6-(4-fluorophenyl)-3,4-dihydroquinolin-2(1H)-one], for which the inhibition at 10 µM worked out at 69%.
`O=C1CCc2cc(-c3ccc(OC(F)(F)F)cc3)ccc2N1Cc1cccnc1` [Compound 37, 1-(pyridin-3-ylmethyl)-6-[4-(trifluoromethoxy)phenyl]-3,4-dihydroquinolin-2(1H)-one]: the inhibition at 10 µM came to 19%.
Take `O=C1CCc2cc(-c3ccc(Oc4ccccc4)cc3)ccc2N1` [Compound 38, 6-(4-phenoxyphenyl)-3,4-dihydroquinolin-2(1H)-one]: the inhibition at 10 µM was 53%.
As to `CC(C)(C)OC(=O)CN1C(=O)CCc2cc(-c3ccc(Cl)cc3)ccc21` [Compound 40, tert-butyl [6-(4-chlorophenyl)-2-oxo-3,4-dihydroquinolin-1(2H)-yl]acetate], the inhibition at 10 µM was found to be 64%.
The same measure, in the same setting: under `N#Cc1cccc(-c2ccc3c(c2)CCC(=O)N3)c1` [Compound 41, 3-(2-oxo-1,2,3,4-tetrahydroquinolin-6-yl)benzonitrile] stands 12%; under `CC1(C)CC(=O)Nc2ccc(-c3ccc(C(F)(F)F)cc3)cc21` [Compound 42, 4,4-dimethyl-6-[4-(trifluoromethyl)phenyl]-3,4-dihydroquinolin-2(1H)-one], 19%.
`CC(C)(C)OC(=O)CN1C(=O)CCc2cc(-c3ccc(C(F)(F)F)cc3)ccc21` [Compound 45, tert-butyl {2-oxo-6-[4-(trifluoromethyl)phenyl]-3,4-dihydroquinolin-1(2H)-yl}acetate]: the “Late INa % blk (10 μM test cmpd)” value (10 μM test compound) came to 64%.
In the case of `CC(C)(C)OC(=O)CN1C(=O)CCc2cc(-c3ccc(OC(F)(F)F)cc3)ccc21` [Compound 50, tert-butyl {2-oxo-6-[4-(trifluoromethoxy)phenyl]-3,4-dihydroquinolin-1(2H)-yl}acetate], the inhibition at 10 µM was determined as 76%.
With `O=C(O)CN1C(=O)CCc2cc(-c3ccc(OC(F)(F)F)cc3)ccc21` [Compound 51, {2-oxo-6-[4-(trifluoromethoxy)phenyl]-3,4-dihydroquinolin-1(2H)-yl}acetic acid], the inhibition at 10 µM came to 14%.
